Laboratory results: PubChem BioAssay (NCI)
Where “and” joins values, the source holds several entries; their conditions need not be identical. Equal entries are not always repeated.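 Where inhibition never reached the appropriate level, the endpoint shown equals the highest concentration tested. Otherwise, values were interpolated linearly from a five-concentration, 48-hour dose response in 96-well plates. GI50: concentration for 50% inhibition of growth. TGI marks complete inhibition of growth.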

How the values were obtained:
Assay in all cases: NCI tumour cell line growth inhibition, 48 h
A549 NSCLC = tested on: A549 NSCLC
COLO 205 colon = tested on: COLO 205 colon
HCC-2998 colon = tested on: HCC-2998 colon
HCT-116 colon = tested on: HCT-116 colon
MCF7 breast = tested on: MCF7 breast
NCI-H226 lung = tested on: NCI-H226 lung
OVCAR-5 ovarian = tested on: OVCAR-5 ovarian
RXF 393 renal = tested on: RXF 393 renal
SF-268 CNS = tested on: SF-268 CNS
SK-MEL-2 melanoma = tested on: SK-MEL-2 melanoma

Compound	GI50 (A549 NSCLC)	TGI (A549 NSCLC)	GI50 (COLO 205 colon)	TGI (COLO 205 colon)	GI50 (HCC-2998 colon)	TGI (HCC-2998 colon)	GI50 (HCT-116 colon)	TGI (HCT-116 colon)	GI50 (MCF7 breast)	TGI (MCF7 breast)	GI50 (NCI-H226 lung)	TGI (NCI-H226 lung)	GI50 (OVCAR-5 ovarian)	TGI (OVCAR-5 ovarian)	GI50 (RXF 393 renal)	TGI (RXF 393 renal)	GI50 (SF-268 CNS)	TGI (SF-268 CNS)	GI50 (SK-MEL-2 melanoma)	TGI (SK-MEL-2 melanoma)
COc1ccc(Cl)cc1Nc1nc(C(F)(F)F)ccc1C(=O)N/N=C/c1ccc([N+](=O)[O-])cc1	3.41 µM	52.7 µM	1.65 µM	3.58 µM	1.29 µM	7.27 µM	2.45 µM	14.7 µM	2.2 µM	7.85 µM	2.01 µM	8.65 µM	1.73 µM	7.59 µM	1.28 µM	6.04 µM	1.69 µM	5.8 µM	–	–
Cc1cc(Cc2cc(C)c(O)c(C)c2)cc(C)c1O	4.32 µM	38.2 µM	32.9 µM	> 100 µM	16.3 µM	82.1 µM	4.12 µM	15.2 µM	3.83 µM	53.7 µM	19.2 µM	77.1 µM	17.8 µM	61.9 µM	6.47 µM	36.4 µM	7.85 µM	86.2 µM	3.65 µM	11 µM
COc1cc(NS(C)(=O)=O)ccc1Nc1c2ccccc2nc2c(C)cccc12	0.0189 µM and 0.0234 µM	1.25 µM and 1.04 µM	0.245 µM and 0.243 µM	2.59 µM and 5.16 µM	0.645 µM and 0.695 µM	6.32 µM and 5.51 µM	0.133 µM and 0.16 µM	2.13 µM and 2.37 µM	0.0248 µM and 0.0337 µM	4.42 µM and 11.9 µM	–	–	0.571 µM and 0.572 µM	13.9 µM and 11.9 µM	0.258 µM and 0.326 µM	1.72 µM and 3.36 µM	0.266 µM and 0.288 µM	13.6 µM and 14.2 µM	6.54 µM and 1.72 µM	20.8 µM and 10.4 µM
CC1=CC[C@@H]2C(C)(C)C(=O)CC[C@@]2(C)[C@@H]1COc1ccc2ccc(=O)oc2c1	10.9 µM	71.2 µM	10.6 µM	39.4 µM	30.3 µM	> 100 µM	16.4 µM	> 100 µM	12.4 µM	31.9 µM	8.7 µM	33.7 µM	25.9 µM	> 100 µM	62 µM	> 100 µM	23.3 µM	> 100 µM	11.5 µM	42.3 µM
COc1cc(-c2nn(-c3ccc(NC(=O)Nc4ccc(Cl)c(Cl)c4)cc3)cc2-c2ccncc2)ccc1Cl	3.58 µM	> 100 µM	1.97 µM	4.2 µM	2.62 µM	7.65 µM	3.08 µM	11 µM	3.35 µM	> 100 µM	4.19 µM	69.1 µM	2.54 µM	> 100 µM	2.16 µM	7.49 µM	4.57 µM	> 100 µM	3.44 µM	39.7 µM
CN(CCC#N)c1ccc(/C=C(\C#N)c2cccc(C(F)(F)F)c2)cc1	–	–	3.81 µM	> 100 µM	5.08 µM	> 100 µM	3.21 µM	> 100 µM	0.544 µM	> 100 µM	6.02 µM	> 100 µM	6.73 µM	> 100 µM	3.75 µM	> 100 µM	6.66 µM	> 100 µM	2.57 µM	8.11 µM
CN(Cc1cnc(N)nc1N)c1ccc(C(=O)O)cc1	> 100 µM	> 100 µM	> 100 µM	> 100 µM	> 100 µM	> 100 µM	> 100 µM	> 100 µM	> 100 µM	> 100 µM	> 100 µM	> 100 µM	> 100 µM	> 100 µM	> 100 µM	> 100 µM	> 100 µM	> 100 µM	> 100 µM	> 100 µM
Cc1csc(/C=N/NC(=O)c2nnn(-c3ccnc4c(C(F)(F)F)cccc34)c2C)c1	36.6 µM	> 100 µM	34.2 µM	> 100 µM	> 100 µM	> 100 µM	36 µM	> 100 µM	> 100 µM	> 100 µM	79 µM	> 100 µM	> 100 µM	> 100 µM	1.41 µM	62.7 µM	> 100 µM	> 100 µM	> 100 µM	> 100 µM
O=c1oc2cc(N=Cc3ccccc3Cl)ccc2c2ccccc12	–	> 100 µM	–	> 100 µM	–	> 100 µM	–	> 100 µM	–	> 100 µM	–	> 100 µM	–	> 100 µM	–	> 100 µM	–	> 100 µM	–	> 100 µM
COc1cc2ccccc2c2cc([N+](=O)[O-])oc12	–	22.7 µM	–	2.36 µM	0.294 µM	1.09 µM	–	10.3 µM	–	15.8 µM	–	3.04 µM	–	9.93 µM	–	0.844 µM	–	> 27.1 µM	–	0.452 µM
Cc1c(C)c2c(c(C)c1NC(=O)/C=C\C(=O)O)CCC(C)(CCCC(C)CCCC(C)CCCC(C)C)O2 (stereo not drawn)	1.79 µM	3.62 µM	1.75 µM	3.54 µM	1.91 µM	3.64 µM	1.28 µM	2.54 µM	2.2 µM	5.32 µM	1.96 µM	4.38 µM	1.72 µM	4.05 µM	1.74 µM	3.23 µM	1.67 µM	3.08 µM	1.86 µM	3.68 µM
Cc1cc(N2CCN(C)CC2)nc(NCc2cc(Nc3ccnc4cc(Cl)ccc34)ccc2F)n1	2.34 µM	5.3 µM	0.71 µM	2.12 µM	1.79 µM	4.85 µM	1.5 µM	3.3 µM	0.334 µM	2.75 µM	7.88 µM	55.4 µM	–	–	1.63 µM	3.82 µM	1.99 µM	7.76 µM	1.95 µM	3.8 µM
COC1C(O)C(C)OC(OC2C(Oc3cccc4c(O)c5c(=O)oc6ccc(C)c7c(=O)oc(c34)c5c67)OC(C)C3O[C@H](c4ccccc4)OC32)C1O (stereo partly drawn)	–	2.53 µM	0.258 µM and 0.204 µM	5.59 µM	0.276 µM	3.41 µM	0.0528 µM and 0.0292 µM	3.64 µM	0.225 µM	4.12 µM	0.186 µM	0.836 µM	–	12.7 µM	–	5.91 µM	–	5.83 µM	0.937 µM	6.07 µM
NC(C/[N+]([O-])=N/O)C(=O)O (stereo not drawn)	0.24 µM	> 100 µM and 67.9 µM	21.6 µM and 69.7 µM and 17.4 µM	> 62.7 µM and > 100 µM and 256 µM	–	> 100 µM and 302 µM	1.01 µM and 2.07 µM and 0.954 µM	–	1.2 µM and 4.17 µM and 1.15 µM	> 100 µM and 295 µM	–	> 468 µM	–	> 100 µM and 230 µM	93.2 µM and > 100 µM and 29 µM	> 100 µM and 381 µM	6.55 µM and 2.88 µM and 5.56 µM	> 482 µM	115 µM	> 100 µM and 359 µM
O=C(/C=C1\C(=O)N(Cc2ccc([N+](=O)[O-])cc2)c2ccccc21)c1ccc(OCCN2CCCCC2)cc1	1.68 µM	3.28 µM	1.64 µM	3.27 µM	1.57 µM	2.93 µM	0.366 µM	1.43 µM	1.43 µM	4.1 µM	3.14 µM	21.4 µM	1.33 µM	3.09 µM	–	–	1.58 µM	3.32 µM	1.66 µM	3.14 µM
C=CCn1c(=O)c2cnc(Nc3ccc(N4CCN(C)CC4)cc3)nc2n1-c1ccc2c(n1)[C@@](O)(CC)CC2	2 µM	35.8 µM	0.336 µM	2.57 µM	0.593 µM	3.82 µM	0.415 µM	16 µM	0.344 µM	> 42.8 µM	1.94 µM	15.2 µM	1.2 µM	19.5 µM	0.131 µM	0.686 µM	2.07 µM	> 63.5 µM	0.332 µM	2.44 µM
O=C(COc1ccc(/C=C2\Oc3ccccc3C2=O)cc1)Nc1nccs1	63.9 µM	> 100 µM	> 100 µM	> 100 µM	> 100 µM	> 100 µM	39.1 µM	> 100 µM	43.2 µM	> 100 µM	60.3 µM	> 100 µM	> 100 µM	> 100 µM	0.354 µM	15.1 µM	36.8 µM	> 100 µM	39 µM	> 100 µM
CC(=O)Nc1ccc(-c2c3nc(c(-c4cc5ccccc5[n+](C)c4)c4ccc([nH]4)c(-c4ccc(NC(C)=O)cc4)c4nc(c(-c5cc6ccccc6[n+](C)c5)c5ccc2[nH]5)C=C4)C=C3)cc1	8.6 µM	35.4 µM	12.9 µM	26.7 µM	> 50 µM	> 50 µM	22 µM	> 50 µM	34.3 µM	> 50 µM	–	–	8.54 µM	> 50 µM	2.05 µM	14.5 µM	35 µM	> 50 µM	15 µM	> 50 µM
CCN(CC)C(=O)CC1=C(C)/C(=C/c2[nH]c(-c3ccc[nH]3)cc2OC)N=C1C	0.639 µM	> 100 µM	0.296 µM	10.1 µM	–	–	0.286 µM	10.3 µM	0.458 µM	17.9 µM	0.531 µM	6.11 µM	5.19 µM	60.9 µM	1.1 µM	22.9 µM	0.633 µM	21.3 µM	0.275 µM	0.799 µM
C/C=C(\C)c1cc(=O)c2c(C)cc3c(c2o1)C(=O)c1c(O)c(C2CC(C)(N(C)C)C(O)C(C)O2)cc(C2CC(N(C)C)C(O)C(C)O2)c1C3=O (stereo not drawn)	0.153 µM	1.66 µM	–	4.09 µM and 20.1 µM	–	–	–	1.3 µM and 10.2 µM	–	14.5 µM and 8.8 µM	–	–	0.579 µM and 3.79 µM	–	0.156 µM and 1.39 µM	–	0.134 µM and 0.632 µM	0.738 µM and 4.52 µM	3.67 µM	12.2 µM
O=C(Cn1c(=O)c(-c2ccccc2)nc2ccccc21)c1ccc(Cl)cc1	58.3 µM	> 100 µM	> 100 µM	> 100 µM	99.5 µM	> 100 µM	> 100 µM	> 100 µM	71.2 µM	> 100 µM	53.5 µM	> 100 µM	> 100 µM	> 100 µM	–	–	> 100 µM	> 100 µM	> 100 µM	> 100 µM
O=C(CC(=O)c1ccc([N+](=O)[O-])cc1)C(=O)Nc1nccs1	–	> 100 µM	–	> 100 µM	–	> 100 µM	–	> 100 µM	–	–	–	> 100 µM	–	> 100 µM	–	> 100 µM	–	> 100 µM	–	> 100 µM
COc1ccc(C2=Nc3ccccc3SC(C)C2)cc1 (stereo not drawn)	–	> 100 µM	–	> 100 µM	–	> 100 µM	–	33 µM	–	–	–	> 100 µM	–	> 100 µM	–	> 100 µM	–	> 100 µM	–	> 100 µM
NC1=NC(c2ccc(Cl)cc2)N(c2ccc(S(=O)(=O)Nc3ncccn3)cc2)C(N)=N1 (stereo not drawn)	–	> 100 µM	–	> 100 µM	–	–	–	> 100 µM	–	> 100 µM	–	> 100 µM	–	> 100 µM	–	> 100 µM	–	> 100 µM	–	> 100 µM
COc1cc([N+](=O)[O-])c(S(=O)(=O)O)cc1NS(=O)(=O)c1ccc(C)cc1	–	> 100 µM	–	> 100 µM	–	–	–	> 100 µM	–	> 100 µM	–	> 100 µM	–	> 100 µM	–	–	–	> 100 µM	–	> 100 µM
Cc1c(C(=O)CC(=O)C(=O)Nc2c(C(C)C)cccc2C(C)C)[n+](=O)c2ccccc2n1[O-]	–	32.3 µM	–	15.2 µM	–	16.6 µM	–	9.1 µM	–	–	–	54.5 µM	–	35.6 µM	–	38.9 µM	–	25.2 µM	–	28.4 µM
CCNC(C)(C)C(SS)c1ccc(Br)cc1 (stereo not drawn)	–	> 100 µM	–	> 100 µM	–	–	–	> 100 µM	–	> 100 µM	–	> 100 µM	–	> 100 µM	–	> 100 µM	–	> 100 µM	–	> 100 µM
CC[C@@]1(OC(=O)CN)C(=O)OCc2c1cc1n(c2=O)Cc2cc3cc4c(cc3nc2-1)OCO4	< 0.01 µM	0.309 µM	0.127 µM	1.53 µM	0.0171 µM	1.38 µM	–	–	< 0.01 µM	> 100 µM	< 0.01 µM	0.121 µM	< 0.0169 µM	0.232 µM	< 0.01 µM	0.192 µM	< 0.01 µM	–	0.105 µM	0.438 µM
